In US11179346B2, “Rupatadine-containing patch” (TEIKOKU SEIYAKU CO., LTD., priority 2017, dated 2021):

Tests used:
[1] = Degree of solubility of rupatadine free base in each plaster ingredient (HPLC method); type: physicochemical
From the text: Test Example 1: Investigation of Degree of Solubility of Rupatadine Free Base in Each Ingredient
The degree of solubility of a rupatadine free base (sometimes also referred to as “rupatadine base”) as an active ingredient in each plaster ingredient was investigated.
Levulinic acid as a solubilizer, oleyl oleate and isopropyl myristate (IPM) as a softener, and lauromacrogol (BL-4,2: polyoxyethylene lauryl ether) as a surfactant were selected. The degree of solubility of the rupatadine base in each ingredient was investigated.
To 5 mL of each of levulinic acid, oleyl oleate, isopropyl myristate (IPM), and lauromacrogol (BL-4,2), an excessive amount of the rupatadine base was added and stirred. The mixture was filtered through a 0.45-μm membrane filter, to remove an undissolved substance. To 200 μL of the filtrate, methanol was added using a measuring flask to adjust the volume to a desired volume. The mixture was measured by HPLC.
A rupatadine concentration was measured by an external calibration curve method, and the degree of solubility was calculated by specific gravity conversion.

[2] = Degree of solubility of rupatadine base in acrylic adhesive (gravimetric method, presence or absence of crystal); type: physicochemical; settings: in acrylic adhesive (OH group), 100 μm plaster, crystal observed by microscope
Experimental: For comparison, the degree of solubility of the rupatadine base in an acrylic adhesive as an adhesive base was also investigated.
The degree of solubility of the rupatadine base in the acrylic adhesive was tested by a gravimetric method.
To 1 g (solid content) of the acrylic adhesive, the rupatadine base was added, and the mixture was stirred and degassed by ultrasonic wave.
The adhesive solution was applied so as to have a thickness of 100 μm, and dried. A plaster was observed by a microscope (manufactured by KEYENCE CORPORATION).
The degree of solubility was determined by the presence or absence of crystal.

Solubility (w/w %) ([1]; in isopropyl myristate (softener)): 2 w/w %
Solubility (w/w %) ([1]; in lauromacrogol (BL-4,2) (surfactant)): 4 w/w %
Solubility (w/w %) ([1]; in levulinic acid (solubilizer)): 29 w/w %
Solubility (w/w %) ([1]; in oleyl oleate (softener)): 2 w/w %
Solubility (w/w %) [2]: ≤15 to 16< w/w %
SMILES: Cc1cncc(CN2CCC(=C3c4ccc(Cl)cc4CCc4cccnc43)CC2)c1 [rupatadine base, 8-chloro-11-[1-[(5-methyl-3-pyridinyl)methyl]-piperidin-4-ylidene]-6,11-dihydro-5H-benzo[5,6]cyclohepta[1,2-b]pyridine]
